From paper PMC11554305, “Functional identification of soluble uric acid as an endogenous inhibitor of CD38” (eLife, 2024)
Like-named read-outs stand apart in the source and are kept apart here.

Legend:
[1] = test system: CD38; assay: Hydrolase and cyclase activities of human and murine CD38; assay type: biochemical; settings: for Effect on hydrolase and cyclase activities of human and murine CD38: sUA precursors and metabolite, above physiological levels, Figure 2B, C and supplement 1A–C; for Effect on CD38 activity: analogs and fragments, 5 to 500 μM, recombinant hCD38, THP-1 cells, WT lung tissues, Figure 2D, E
Description: The hydrolase activity of CD38 was measured according to a previous report ([de Oliveira et al., 2018]) with minor modifications. CD38 hydrolase activity was measured using 50 μM ε-NAD^+ as a substrate in hydrolase reaction buffer (250 mM sucrose, 40 mM Tris-HCl, pH 7.4). Briefly, cells or tissues were directly homogenized in blank reaction buffer on ice, and recombinant hCD38 was diluted in blank reaction buffer for subsequent assays. The tissue homogenates were centrifuged to collect the supernatant for enzyme assays. The loading volume of enzyme was 4–30 μL, the total volume of the reaction system was 3 mL. To detect enzyme inhibition, except when specified, the ligands were directly dissolved in hydrolase reaction buffer before pH adjustment, after which, the pH was immediately adjusted to 7.4. All reaction buffers, with or without ligands, were freshly prepared before each assay. For measurement of hydrolase activity, 3 mL reaction buffer containing enzyme, ε-NAD^+, and ligands at indicated concentrations was maintained at 37°C with constant stirring.
The cyclase activity of CD38 was measured as previously described ([Higashida et al., 1999]; [Jin et al., 2007]). CD38 cyclase activity was measured using 60 μM NGD as a substrate in cyclase reaction buffer (100 mM KCl, 10 μM CaCl2, and 50 mM Tris-HCl, pH 6.6). Tissues were cut into pieces and suspended in the buffer (5 mM MgCl2, 10 mM Tris-HCl, pH 7.3) at 4°C for 30 min. Then, the suspension was homogenized on ice, and the supernatant was collected after centrifugation. To collect the crude membrane fractions, the supernatant was centrifuged at 105,000×g for 30 min. The final pellet was resuspended in 10 mM Tris-HCl solution (pH 6.6) for cyclase assay. Homogenates of THP-1 or A549 cells, and recombinant hCD38 were used directly for cyclase assays. The loading volume of enzyme was 4–20 μL, the total volume of reaction system was 3 mL. To detect enzyme inhibition, except when specified, the ligands were directly dissolved in cyclase reaction buffer before pH adjustment, after which, the pH was immediately adjusted to 6.6. All reaction buffers, with or without ligands, were freshly prepared before each assay. For measurement of cyclase activity, 3 mL reaction buffer containing enzyme, NGD, and ligands at indicated concentrations was maintained at 37°C with constant stirring.
The reaction buffer for hydrolase or cyclase assays was excited at 300 nm, and fluorescence emission was measured every second at 410 nm by Shimazu RF-6000 spectrofluorometer. Hydrolase or cyclase activity was calculated from the linear portion of the time course by fitting a linear function to the data points recorded within 5 min.
(§1) Guanosine was dissolved in DMSO and diluted in the reaction buffer for subsequent assays.
For reversibility test, recombinant hCD38 was pre-incubated for 30 min in four conditions: (1) control reaction buffer; (2) in the presence of 100 μM substrate (ε-NAD^+ or NGD); (3) 500 μM sUA; (4) both substrate and sUA. Subsequently, the enzyme was diluted 100-fold in reaction buffer in the presence or absence of 500 μM sUA for activity assays using ε-NAD^+ or NGD. Naïve THP-1 and A549 cells were incubated with RPMI-1640 medium in the presence or absence of 500 μM sUA for 2 hr. The cells were collected and homogenized in the reaction buffer on ice with or without 500 μM sUA, samples were then diluted 100-fold in reaction buffer with or without 500 μM sUA for enzyme assay. Control group was not treated with sUA in all steps; sUA group was treated with sUA in each step; sUA release group was treated with sUA prior to dilution in sUA-free buffer for enzyme assays.

[2] = Solubility and crystal precipitation in solution; assay type: physicochemical
Description: as §1
MSU crystals were prepared by the recrystallization of oversaturated sUA according to a previous report ([Martinon et al., 2006]). Improper preparation of sUA solution may introduce crystals to cause false-positive or false-negative results. […] In this study, the sUA solution was prepared according to an improved protocol ([Ma et al., 2020]). […] Then, sUA solution was immediately filtered by 0.2 μm filters and diluted to experimental concentration (up to 10 mg/dL, 595 μM) for cell experiments. […]

Molecule	Effect on hydrolase and cyclase activities of human and murine CD38 [1]	also measured
NC(=O)NC1NC(=O)NC1=O (stereo not drawn) [Allantoin, allantoin]	hardly inhibited	
Nc1ncnc2c1ncn2[C@@H]1O[C@H](CO)[C@@H](O)[C@H]1O [Adenosine, adenosine]	hardly inhibited	
Nc1nc2c(ncn2[C@@H]2O[C@H](CO)[C@@H](O)[C@H]2O)c(=O)[nH]1 [Guanosine, guanosine, reference compound]	hardly inhibited	Solubility in reaction buffer ([2]; tested only at 50 μM): limited solubility
O=c1[nH]cc[nH]1 [1,3-DHI-2-one, 1,3-dihydroimidazol-2-one]		Effect on CD38 activity [1]: did not affect CD38 activity
O=c1cc[nH]c(=O)[nH]1 [Uracil, uracil]		Effect on CD38 activity [1]: did not affect CD38 activity
8-oxoguanine [8-OG, reference compound]		Solubility in reaction buffer [2]: limited solubility

The next lines start with results.

Effect on hydrolase and cyclase activities of human and murine CD38 [1]	Molecule	also measured
hardly inhibited	O=c1[nH]cnc2nc[nH]c12 [Hypoxanthine, hypoxanthine]	
hardly inhibited	O=c1[nH]c(=O)c2nc[nH]c2[nH]1 [Xanthine, xanthine]	
